The text below walks through data of patent US20110306035A1, “Methods and Compositions for Detection of a Pathogen, Disease, Medical Condition, or Biomarker Thereof” (priority 2008, published 2011).

Structures are written as SMILES. Several values for one entry are separate records, joined by “and”; a condition that tells them apart may be missing. Identical values can stand only once.

Data set [1] has as its target T1, COX enzyme (Coxsackievirus B5, UniProt Q03053).
T1 construct: 3D structure modeling of enterovirus 3C protease with it substrate Camb2
In words: Assay optimization - solvent with COX enzyme (1:10). It is filed as biochemical, Enterovirus (COX). The method, then: Various solvents were tested in order to optimize substrate solubility and stability. […] All the solvents tested were prepared at 0-10% concentrations in 2× reaction buffer and the final concentrations tested were 0-5%. […] Camb 2 was added to the final 2× buffer. For 1,2-Propanediol and 1,3-Propanediol, Camb 2 was first dissolved in the solvent at the appropriate concentration. The solvent+camb2 was then added to 3× reaction buffer to make a final 2× reaction buffer+2 uM camb2. […]
1,3-Propanediol with COX enzyme (1:10):

In data set [2] the test system is 3C protease (EV assay). The data set can be described thus: Assay optimization - solvent (EV assay, Camb 2). The format is biochemical, Enterovirus. As to conditions: for effect on reaction rate: all concentrations tested. How it is done:
Various solvents were tested in order to optimize substrate solubility and stability. […] All the solvents tested were prepared at 0-10% concentrations in 2× reaction buffer and the final concentrations tested were 0-5%. […] Camb 2 was added to the final 2× buffer. For 1,2-Propanediol and 1,3-Propanediol, Camb 2 was first dissolved in the solvent at the appropriate concentration. The solvent+camb2 was then added to 3× reaction buffer to make a final 2× reaction buffer+2 uM camb2. All the experiments were performed in the TECAN Polarstar n=1 in triplicates.

Data set [3] addresses T2, Recombinant protease from enterovirus strain Echo (Echovirus 30, UniProt Q9WN78).
T2 construct: Phosphoramidon was tested using the Echovirus 3C recombinant
The data set can be described thus: Enterovirus assay optimization with recombinant Echo protease (plates, tubes, buffer, Na2SO4, substrate concentration, diluent). It is filed as biochemical. As to conditions: for Positive control, Average / Positive control: substrate stock diluted 1:8 in this diluent, 0.25 uM final, analysis 5-10 min; for Positive control: single repetition. How it is done:
• Inhibitor Cocktail: Inhibitors cocktail I10 • Enzyme dilution buffer: −25 mM HEPES pH 7.5, 150 mM NaCl, 1 mM EDTA, 10% Glycerol, 0.5 mg/ml BSA, 1M Sucrose, 0.1% Sodium azid. • 2× reaction buffer, Buffer B: 50 mM HEPES, 10 mM EDTA, 10 mM EGTA, 1.2M Na2SO4, sodium azide 0.1%, pH 8.5 • Artificial CSF: NaCl 125 mM, KCl 2.5 mM, MgCl 1 mM, NaH2PO4 1.25 mM, CaCl2 2 mM, Glucose 2.5 mM, NaHCO3 25 mM, 0.1% Sodium azide, HEPES 25 mM, pH 7.45. • Enzyme: Recombinant protease from enterovirus strain “Echo” [dilution 1:18 • Substrate: Camb-2.3, 1 mM, Camb-2.4, 2 mM. (Different batches for the same Camb2 sequence) • HEPES Buffer: HEPES 25 mM • NB tubes: Sigma Cat #Z666505 • Amber tubes: USA scientific Inc. Cat. 1620-2707 • 96 well Plate: Dark bottom NB plate—Greiner Cat. 655900
• 1. Add artiCSF±HEPES buffer to plate • 2. Prepare 400 ul HEPES buffer±RB+substrate (camb2.3 and 2.4) in both amber and NB tubes. • 3. Add enzyme to wells • 4. Add HEPES buffer±RB+substrate to wells with multichannel pipette.
The reaction buffer is a part of the enterovirus test kit of the invention. The camb-2 substrate is dissolved in the reaction buffer. The reaction buffer contains different salts to allow the tested enzyme to work at the optimal conditions. The current reaction buffer composition is: HEPES pH 7.5, 300 mM NaCl, 10 mM EDTA, 10 mM EGTA, 10% Glycerol, 1.8M Na2SO4, 0.1% Sodium azide. The amount of salt in the reaction buffer is high and allows optimal enzymatic activity. However, under these conditions, substrate solubility is affected. Thus, the reaction buffer was improved to increase substrate solubility without reducing enzymatic activity of the tested 3C protease.
300 mM NaCl and 10% glycerol was removed from the reaction buffer and several reduced concentrations of Na2SO4 (starting at 0.9M) were tested in order to determine the minimal salt requirements of the assay (Tables 31-34). Experiments were repeated at least three times by two different scientists.
CSF sample was incubated with 50 nM Echo protease and 2× reaction buffer with 0.6M Na2SO4. Also included were 3 blanks and 9 positive control repetitions.
The effect of reduction in substrate (camb2) concentration and increase in measurement time was tested. The experiment was performed at a final substrate (camb2.5) concentrations of 1, 0.5, 0.25 and 0.125 μM and data analysis was made at different time intervals: 1.5-5, 5-12 and 5-22 min (FIGS. 27A-C).
Sodium sulfate generally has an ambivalent effect: it increase 3C protease activity and reduces substrate solubility. Once it was decided that the substrate concentration would be reduced to 0.25 uM and results analyzed at between 5-10 min, the Na2SO4 concentration was optimized. […] 0.6-0.4M Na2SO4 was tested under the new assay conditions.
• Data analysis was performed between 5-10 min. • The assay activity was measured in triplicates by three scientists. The results in Table 51 are the average of the three triplicates.
To examine the effect of substrate dilution in DMSO vs. DDW under the new assay conditions, substrate stock (1 mM in DMSO) was diluted 1:8 in DMSO or in DDW to yield the working stock. The working stocks were further diluted 1:250 in 2× RB for a concentration of 0.5 uM (0.25 uM final in the well).
The assay activity was measured in triplicates by three scientists. The results in Table 52 are the average of the three triplicates.

Where [4] appears, read: 1,2-propanediol 1% final, Table 50 Galaxy FLUOstar with nonbinding microplate.
Where [5] appears, read: 1,2-propanediol 2.5% final, Table 49 TECAN with nonbinding microplate.
Where [6] appears, read: 1,2-propanediol 2.5% final, Table 50 Galaxy FLUOstar with nonbinding microplate.
Where [7] appears, read: 1,2-propanediol 4% final, Table 49 TECAN with nonbinding microplate.
Setting [8] is: 1,2-propanediol 4% final, Table 50 Galaxy FLUOstar with nonbinding microplate.
The mark [9] stands for this setting: 1,2-propanediol 5% final, Table 49 TECAN with nonbinding microplate.
[10] abbreviates: 1,2-propanediol 5% final, Table 50 Galaxy FLUOstar with nonbinding microplate.
The mark [11] stands for this setting: 1,3-propanediol 1% final, Table 47 GalaxyFLUOstar, second sub-table.
Setting [12] is: 1,3-propanediol 2.5% final, Table 47 GalaxyFLUOstar, second sub-table.
Setting [13] is: 1,3-propanediol 2.5% final, Table 48 TECAN with nonbiding plate.
[14] abbreviates: 1,3-propanediol 4% final, Table 47 GalaxyFLUOstar, second sub-table.
Setting [15] is: 1,3-propanediol 4% final, Table 48 TECAN with nonbiding plate.
Setting [16] is: 1,3-propanediol 5% final, Table 47 GalaxyFLUOstar, first sub-table.
Setting [17] is: 1,3-propanediol 5% final, Table 47 GalaxyFLUOstar, second sub-table.
Where [18] appears, read: 1,3-propanediol 5% final, Table 48 TECAN with nonbiding plate.
The mark [19] stands for this setting: Acetonitrile 0.5% final, Table 43 Experiment 2.
[20] abbreviates: Acetonitrile 1% final, Table 42 Experiment 1.
[21] abbreviates: Acetonitrile 1% final, Table 43 Experiment 2.
The mark [22] stands for this setting: Acetonitrile 2.5% final, Table 42 Experiment 1.
Setting [23] is: Acetonitrile 4% final, Table 42 Experiment 1.
Setting [24] is: Acetonitrile 5% final, Table 42 Experiment 1.
Setting [25] is: Isopropanol 1% final, Table 39 Experiment 1.
The mark [26] stands for this setting: Isopropanol 1% final, Table 40 Experiment 2.
Where [27] appears, read: Isopropanol 2.5% final, Table 39 Experiment 1.
[28] abbreviates: Isopropanol 2.5% final, Table 40 Experiment 2.
[29] abbreviates: Isopropanol 4% final, Table 39 Experiment 1.
[30] abbreviates: Isopropanol 4% final, Table 40 Experiment 2.
Setting [31] is: Isopropanol 5% final, Table 39 Experiment 1.
Where [32] appears, read: Isopropanol 5% final, Table 40 Experiment 2.

T1 sequence (Q03053 1541-1723): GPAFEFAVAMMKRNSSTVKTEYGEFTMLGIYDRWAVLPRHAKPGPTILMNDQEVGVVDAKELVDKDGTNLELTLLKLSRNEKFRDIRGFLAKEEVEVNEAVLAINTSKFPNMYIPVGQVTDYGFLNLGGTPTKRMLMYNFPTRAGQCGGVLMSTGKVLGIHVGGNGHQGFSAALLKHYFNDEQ
T2 sequence (Q9WN78 1550-1732): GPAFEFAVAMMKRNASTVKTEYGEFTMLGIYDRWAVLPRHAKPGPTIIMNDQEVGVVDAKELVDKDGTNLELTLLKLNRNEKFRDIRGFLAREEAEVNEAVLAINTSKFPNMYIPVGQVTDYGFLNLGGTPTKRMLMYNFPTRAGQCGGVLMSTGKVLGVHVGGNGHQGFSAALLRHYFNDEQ

As for `CC(O)CO` (stereo not drawn) [1,2-propanediol, 1,2-Propanediol], the “Reaction rate Average P.C” value is 8588.13 RFU/min in data set [1] (1,2-propanediol 1% final, Table 49 TECAN with nonbinding microplate); 5689.6 RFU/min in data set [1] (setting [4]); 6521.1 RFU/min in data set [1] (setting [5]); 4838.97 RFU/min in data set [1] (setting [6]); 5013.13 RFU/min in data set [1] (setting [7]); 4291.04 RFU/min in data set [1] (setting [8]). Moreover, the entries for the “Reaction rate Average P.C” value in data set [1] (setting [9]) and in data set [1] (setting [10]) were 4509 RFU/min and 3278.19 RFU/min, respectively. Besides, the “% Loss” value was 9% in data set [1] (setting [4]); 20% in data set [1] (setting [5]); 22% in data set [1] (setting [6]); 30% in data set [1] (setting [7]); 30% in data set [1] (setting [8]); 44% in data set [1] (setting [9]). Further, the “% Loss” value in data set [1] (setting [10]) is reported as 47%. In addition, in data set [1] (all concentrations tested except 1%), the “effect on enzymatic activity” value is recorded as “inhibited enzymatic activity”.

Turning to `OCCCO` [1,3-propanediol, 1,3-Propanediol], the “Reaction rate Average P.C” value in data set [1] (1,3-propanediol 1% final, Table 47 GalaxyFLUOstar, first sub-table) is recorded as 3948.19 RFU/min; in data set [1] (setting [11]), 4125.89 RFU/min; in data set [1] (1,3-propanediol 1% final, Table 48 TECAN with nonbiding plate) it was 7620.53 RFU/min; in data set [1] (setting [12]), 4491.13 RFU/min; in data set [1] (setting [13]) it was 4681.05 RFU/min; in data set [1] (setting [14]), 2956.26 RFU/min. The “Reaction rate Average P.C” value in data set [1] (setting [15]) turned out to be 7238.7 RFU/min; in data set [1] (setting [16]) it was 3072.45 RFU/min; in data set [1] (setting [17]), 2389.47 RFU/min; in data set [1] (setting [18]), 5929.86 RFU/min. The “% Loss” value in data set [1] (setting [11]) came to 20%; in data set [1] (setting [12]) it was 11%; in data set [1] (setting [13]), 36%; in data set [1] (setting [14]), 42%; in data set [1] (setting [15]) it was 2%; in data set [1] (setting [16]) it was 10%. The “% Loss” value in data set [1] (setting [17]) was 47%; in data set [1] (setting [18]), 20%.

`CC#N` [Acetonitrile]: the “% Loss” value in data set [2] (setting [19]) was found to be 7%; in data set [2] (setting [20]) it was 43%; in data set [2] (setting [21]), 25%; in data set [2] (setting [22]), 57%; in data set [2] (setting [23]), 65%; in data set [2] (setting [24]), 84%. The “Reaction rate Average P.C” value is reported as 1257.5 RFU/min in data set [2] (setting [19]); 1106.6 RFU/min in data set [2] (setting [20]); 1002.48 RFU/min in data set [2] (setting [21]); 846.73 RFU/min in data set [2] (setting [22]); 706.1 RFU/min in data set [2] (setting [23]); 308.48 RFU/min in data set [2] (setting [24]). Further, the “effect on reaction rate” value in data set [2] is “loss in reaction rate”.

On to `O` [DDW], for which, in data set [3] (substrate diluted with DDW), the “reaction rate lower compared to DMSO” value was 25%. Also, in data set [3], the “Positive control, Average” value is reported as 789.5 RFU/min; the Positive control is 747 ± 68 RFU/min and 832 ± 64 RFU/min.

For the compound `C[S+](C)[O-]` [DMSO], in data set [3], the “Positive control, Average” value is on record as 1005 RFU/min; the Positive control was 1023 ± 36 RFU/min and 987 ± 126 RFU/min. In addition, the “Reaction rate Average P.C” value in data set [2] (DMSO 1% final, Table 41) is reported as 1270 RFU/min. Also, in data set [2] (DMSO 2.5% final, Table 41), the “% Loss” value is reported as 7% and the “Reaction rate Average P.C” value is reported as 1139.26 RFU/min. Besides, the “Reaction rate Average P.C” value in data set [2] (DMSO 4% final, Table 41) amounted to 1288 RFU/min. For the same compound, the “effect on reaction rate” value in data set [2] is “no loss in reaction rate”.

Take `CC(C)O` [Isopropanol]: the “salt precipitation in reaction buffer” value in data set [2] (4 and 5% final) is “salt precipitation formed”. The “% Loss” value was 45% in data set [2] (setting [25]); 35% in data set [2] (setting [26]); 3% in data set [2] (setting [27]); 50% in data set [2] (setting [28]); 100% in data set [2] (setting [29]); 42% in data set [2] (setting [30]). Moreover, the “% Loss” value was determined as 100% in data set [2] (setting [31]) and 75% in data set [2] (setting [32]). Moreover, the “Reaction rate Average P.C” value in data set [2] (setting [25]) was 641.57 RFU/min; in data set [2] (setting [26]) it was 1047.42 RFU/min; in data set [2] (setting [27]) it was 1143.93 RFU/min; in data set [2] (setting [28]), 806 RFU/min; in data set [2] (setting [29]), −2.7 RFU/min; in data set [2] (setting [30]), 676.0 RFU/min. Besides, the “Reaction rate Average P.C” value in data set [2] (setting [31]) was −4.19 RFU/min; in data set [2] (setting [32]), 394.82 RFU/min. In addition, the “effect on reaction rate” value in data set [2] is recorded as “loss in reaction rate”.
